Measured values reported in the Deep4Chem optical property database.
Values joined by “and” are separate entries in the source; they are usually repeats but may differ in a detail not shown here. Equal entries are not always repeated. One block for each compound: values may come before it.

Assay: solvent given as SMILES

SMILES: CCN(CC)c1cccc2c1ccc1c(=O)oc(-c3ccc(C(F)(F)F)cc3)cc12
absorption maximum (in CC(C)=O): 390 nm
absorption maximum (in CCCCCC): 388 nm
absorption maximum (in CCCCCCCCO): 393 nm
absorption maximum (in CCCCO): 392 nm
absorption maximum (in CCCO): 391 nm
absorption maximum (in CCO): 392 nm
absorption maximum (in CCOC(C)=O): 389 nm
absorption maximum (in CN(C)C=O): 394 nm
absorption maximum (in CO): 391 nm

SMILES: CCOC(=O)c1cc(C(=O)OCC)c2c(C)ccc(OC(=O)OC(C)(C)C)c2n1
absorption maximum (in CCO): 312 nm

SMILES: N#CC=C(c1ccc(N2c3ccccc3Oc3ccccc32)cc1)c1ccc(N2c3ccccc3Oc3ccccc32)cc1
absorption maximum (in Cc1ccccc1): 405 nm

SMILES: CCCCCCCCc1ccc(-n2c3c(c4c2c2c(n4-c4ccc(CCCCCCCC)cc4)-c4ccccc4NB2c2ccccc2)B(c2ccccc2)Nc2ccccc2-3)cc1
absorption maximum (in Cc1ccccc1): 387 nm

SMILES: N#C/C(=C(/C#N)c1ccc(-c2ccncc2)cc1)c1ccc(-c2ccncc2)cc1
absorption maximum (in ClCCl): 343 nm

SMILES: Cc1ccc(N2C(c3ccccc3N(C)C)=NC(c3ccccc3)C2c2ccccc2)cc1 (configuration not stated)
absorption maximum (in Cc1ccccc1): 275 nm

SMILES: C(=C\c1nc(/C=C/c2ccc(-n3c4ccccc4c4ccccc43)cc2)nc(/C=C/c2ccc(-n3c4ccccc4c4ccccc43)cc2)n1)/c1ccc(-n2c3ccccc3c3ccccc32)cc1
absorption maximum (in C1CCOC1): 381 nm
absorption maximum (in CC#N): 376 nm
absorption maximum (in Cc1ccccc1): 389 nm
absorption maximum (in ClCCl): 383 nm

SMILES: O=C1c2cc(-n3c4ccccc4c4ccccc43)c(-n3c4ccccc4c4ccccc43)cc2C(=O)N1c1ccccc1
absorption maximum (in Cc1ccccc1): 388 nm

SMILES: CCCCOc1c(C=C2C=Cc3ccccc3N2C)c(=O)c1=O
absorption maximum (in CCO): 465 nm

SMILES: CCCCCCCCCCCCNc1cccc2[n+]1[B-](F)(F)n1c(c3cccc4cccc1c43)=N2
absorption maximum (in C1CCOC1): 498 nm
absorption maximum (in CC#N): 493 nm
absorption maximum (in CCCCCC): 496 nm
absorption maximum (in Cc1ccccc1): 500 nm
absorption maximum (in ClCCl): 497 nm and 467 nm

SMILES: c1ccc(-c2nc(-c3ccccn3)[se]c2N(c2ccccc2)c2ccccc2)cc1
absorption maximum (in ClC(Cl)Cl): 406 nm

SMILES: CCC1=C(C)C2=C(c3c4ccccc4c(C)c4ccccc34)c3c(C)c(CC)c(C)n3[B-](F)(F)[N+]2=C1C
absorption maximum (in CC#N): 527 nm
absorption maximum (in CCCCCC): 529 nm
absorption maximum (in CCO): 528 nm
absorption maximum (in CN(C)C=O): 530 nm
absorption maximum (in Cc1ccccc1): 532 nm
absorption maximum (in ClCCl): 531 nm

SMILES: CCn1c2ccccc2c2cc(-c3cc(-c4ccc5c(c4)c4ccccc4n5CC)nc(-c4ccc(C#N)cc4)n3)ccc21
absorption maximum (in C1CCOC1): 367 nm
absorption maximum (in CCOC(C)=O): 363 nm
absorption maximum (in CN(C)C=O): 370 nm
absorption maximum (in Cc1ccccc1): 366 nm
absorption maximum (in ClCCl): 365 nm

SMILES: CCN1c2ccc(/C=N/Nc3ccccn3)cc2Sc2cc(-c3cccc4ccccc34)ccc21
absorption maximum (in C1CCOC1): 378 nm
absorption maximum (in CS(C)=O): 383 nm
absorption maximum (in Cc1ccccc1): 378 nm
absorption maximum (in ClCCl): 379 nm

SMILES: c1ccc(N(c2ccccc2)c2c3ccccc3cc3ccccc23)cc1
absorption maximum (in Cc1ccccc1): 428 nm

SMILES: COC(=O)C(Cc1ccc2oc(-c3ccc(N(c4ccccc4)c4ccccc4)cc3)nc2c1)NC(=O)OC(C)(C)C (configuration not stated)
absorption maximum (in C1CCCCC1): 361.7 nm
absorption maximum (in C1CCOC1): 362.85 nm
absorption maximum (in C1COCCO1): 363.1 nm
absorption maximum (in CC1CCCCC1): 361.35 nm
absorption maximum (in CC1COC(=O)O1): 361.45 nm
absorption maximum (in CC#N): 360.5 nm
absorption maximum (in CC(C)=O): 360.45 nm
absorption maximum (in CC(C)O): 365.45 nm
absorption maximum (in CC(O)CO): 368.35 nm
absorption maximum (in CCCCCC): 359.8 nm
absorption maximum (in CCCCCCCC): 361.55 nm
absorption maximum (in CCCCCO): 367.75 nm
absorption maximum (in CCCCO): 367.1 nm
absorption maximum (in CCO): 366.3 nm
absorption maximum (in CCOC(C)=O): 360.5 nm
absorption maximum (in CN(C)C=O): 363 nm
absorption maximum (in CO): 365.05 nm
absorption maximum (in COCCOC): 362.55 nm
absorption maximum (in CS(C)=O): 364 nm
absorption maximum (in ClC(Cl)Cl): 369.25 nm
absorption maximum (in ClCCl): 366.18 nm
absorption maximum (in N#Cc1ccccc1): 368.3 nm
absorption maximum (in NC=O): 367.45 nm
absorption maximum (in O): 367 nm
absorption maximum (in OCC(F)(F)F): 366.1 nm

SMILES: CCCCOc1c(-c2ccc(N(c3ccccc3)c3ccccc3)cc2)cc2cc(-c3ccc(N(c4ccccc4)c4ccccc4)cc3)c(OCCCC)c3c4c(OCCCC)c(-c5ccc(N(c6ccccc6)c6ccccc6)cc5)cc5cc(-c6ccc(N(c7ccccc7)c7ccccc7)cc6)c(OCCCC)c(c1c23)c54
absorption maximum (in ClCCl): 422 nm

SMILES: CC(C)[Si]1(C(C)C)c2cc(C=O)ccc2-c2ccc(N(C)C)cc21
absorption maximum (in C1CCCCC1): 390 nm
absorption maximum (in CC#N): 391 nm
absorption maximum (in CCO): 395 nm
absorption maximum (in CCOCC): 384 nm
absorption maximum (in CS(C)=O): 400 nm
absorption maximum (in ClCCl): 397 nm
absorption maximum (in c1ccccc1): 392 nm

SMILES: COc1ccc(-c2nc(-c3ccc(C)cc3)c3ccccn23)cc1
absorption maximum (in ClC(Cl)Cl): 303 nm

SMILES: CCN(CC)c1ccc(OC)c(C=O)c1
absorption maximum (in CC#N): 412 nm
absorption maximum (in CC(C)O): 418 nm
absorption maximum (in CCCCCC): 400 nm
absorption maximum (in CCOC(C)=O): 406 nm
absorption maximum (in CO): 420 nm
absorption maximum (in CS(C)=O): 424 nm
absorption maximum (in Cc1ccccc1): 411 nm
absorption maximum (in ClCCl): 415 nm

SMILES: CC1=C2C=CC=[N+]2[B-](F)(F)n2cccc21
absorption maximum (in CCCCCC): 500 nm
absorption maximum (in CO): 494 nm
absorption maximum (in ClCCl): 499 nm

SMILES: CCN1\C(=C/C=C/C=C/C2=[N+](CC)c3ccc4ccccc4c3C2(C)C)C(C)(C)c2c1ccc1ccccc21
absorption maximum (in C1CCOC1): 684 nm
absorption maximum (in CC#N): 677 nm
absorption maximum (in CC(C)=O): 680 nm
absorption maximum (in CCO): 682 nm
absorption maximum (in CN(C)C=O): 683 nm
absorption maximum (in CO): 678 nm
absorption maximum (in CS(C)=O): 686 nm
absorption maximum (in ClCCl): 693 nm

SMILES: c1ccc(Cc2c3ccc(=[N+]4CCCCC4)cc-3oc3cc(N4CCCCC4)ccc23)cc1
absorption maximum (in ClCCl): 566 nm

SMILES: CC(=O)OCCOCCN1C(=O)c2cc(NCCOCCO)c3c4c(cc(NCCOCCO)c(c24)C1=O)C(=O)N(CCOCCOC(C)=O)C3=O
absorption maximum (in CO): 604 nm
absorption maximum (in ClC(Cl)Cl): 610 nm
absorption maximum (in O): 622 nm

SMILES: CC1=CC(C)=[N+]2C1=C(c1ccc(-c3c4ccccc4c(-c4ccccc4)c4ccccc34)cc1)c1c(C)cc(C)n1[B-]2(F)F
absorption maximum (in CC#N): 499 nm
absorption maximum (in CCCCCC): 502 nm
absorption maximum (in CCO): 500 nm
absorption maximum (in CN(C)C=O): 500 nm
absorption maximum (in Cc1ccccc1): 504 nm
absorption maximum (in ClCCl): 502 nm

SMILES: Cc1cc(-n2c3ccccc3c3cc(C#N)ccc32)ccc1-c1ccc(S(=O)(=O)c2ccccc2)cc1C
absorption maximum (in Cc1ccccc1): 341 nm

SMILES: CCCCCCCCCCN1C(=O)c2cc(NCCCOCCO)c3c4c(cc(NCCCOCCO)c(c24)C1=O)C(=O)N(CCCCCCCCCC)C3=O
absorption maximum (in CO): 604 nm
absorption maximum (in ClC(Cl)Cl): 609 nm

SMILES: O=c1cccc2n1CN1C=C(Br)C=CC1=N2
absorption maximum (in CO): 436 nm

Other lines, results leading:

absorption maximum (in CC#N): 410 nm
SMILES: CCOC(=O)c1c2c3c(ccc(F)c3c3cc4ccccc4cc13)N(C)C2=O

absorption maximum (in ClCCl): 402 nm
SMILES: CN(C)c1ccc(/C=C/c2cc(/C=C/c3ccc(N(C)C)cc3)nc(/C=C/c3ccc(N(C)C)cc3)n2)cc1

absorption maximum (in CC#N): 421 nm
SMILES: CCN(CC)c1ccc2cc(/C=C/c3ccccc3)c(=O)oc2c1

absorption maximum (in ClCCl): 454 nm
SMILES: CCCCN(CCCC)c1ccc(C#Cc2cc(C#Cc3ccc(C#N)cc3)c(C#Cc3ccc(N(CCCC)CCCC)cc3)cc2C#Cc2ccc(C#N)cc2)cc1

absorption maximum (in ClCCl): 372 nm
SMILES: CCCCN1C(=O)c2cccc3c(C#CC#Cc4ccc5c6c(cccc46)C(=O)N(CCCC)C5=O)ccc(c23)C1=O

absorption maximum (in CC1CCCCC1): 438 nm
SMILES: CC(C)(C)c1ccc2cc3c4cccc5cccc(c6cc(C(C)(C)C)cc(c2c1)c63)c54

absorption maximum (in CS(C)=O): 549 nm
SMILES: CN1/C(=C/C=C/C2=[N+](C)c3ccccc3C2(C)C)Sc2ccccc21

absorption maximum (in ClCCl): 396 nm
SMILES: CC(C)(C)c1ccc2c(c1)c1cc(C(C)(C)C)ccc1n2-c1ccc(N(c2ccc(-c3ccc(-c4ccc(N(c5ccc(-n6c7ccc(C(C)(C)C)cc7c7cc(C(C)(C)C)ccc76)cc5)c5ccc(-n6c7ccc(C(C)(C)C)cc7c7cc(C(C)(C)C)ccc76)cc5)cc4)s3)cc2)c2ccc(-n3c4ccc(C(C)(C)C)cc4c4cc(C(C)(C)C)ccc43)cc2)cc1

absorption maximum (in ClCCl): 325 nm
SMILES: Cc1ccccc1N1c2sc3ccccc3c2Sc2sc3ccccc3c21

absorption maximum (in ClCCl): 394 nm
SMILES: CC(C)[Si](C#Cc1ccc2c(C#C[Si](C(C)C)(C(C)C)C(C)C)cc3c4cc(C#C[Si](C(C)C)(C(C)C)C(C)C)ccc4c(C#C[Si](C(C)C)(C(C)C)C(C)C)cc3c2c1)(C(C)C)C(C)C

absorption maximum (in CO): 260 nm
SMILES: COc1ccc(-c2nc(-c3cc([N+](=O)[O-])ccc3O)[nH]c2-c2ccc(OC)cc2)cc1

absorption maximum (in ClC(Cl)Cl): 626 nm
SMILES: F[B-]1(F)n2c(cc(Br)c2Br)C(c2ccccc2)=C2C=C(Br)C(c3ccc[nH]3)=[N+]21

absorption maximum (in ClC(Cl)Cl): 315 nm
SMILES: CCCCCCc1ccc(-n2c3c4cccc(OC)c4nc(-c4ccc(C)cc4)c3c3c2c2c(-c4ccc(C)cc4)nc4c(OC)cccc4c2n3-c2ccc(CCCCCC)cc2)cc1

absorption maximum (in ClCCl): 590 nm
SMILES: CC1=CC(C)=[N+]2C1=C(c1ccc(Br)cc1)c1c(C)cc(/C=C/c3ccc[nH]3)n1[B-]2(F)F

absorption maximum (in ClC(Cl)Cl): 411 nm
SMILES: Cc1ccc2nc3c4c(c5ccccc5c3nc2c1)OC(=O)CC4c1ccc(C(F)(F)F)cc1 (configuration not stated)

absorption maximum (in ClC(Cl)Cl): 582 nm
SMILES: CCCCN1C(=O)c2cc(Oc3ccc(C(C)(C)C)cc3)c3c4c(Oc5ccc(C(C)(C)C)cc5)cc5c6c(cc(Oc7ccc(C(C)(C)C)cc7)c(c7c(Oc8ccc(C(C)(C)C)cc8)cc(c2c37)C1=O)c64)C(=O)N(CCCC)C5=O

absorption maximum (in CS(C)=O): 553 nm
SMILES: C[N+]1=C(/C=C/C=C2/N(CCCS(=O)(=O)[O-])c3ccccc3C2(C)C)C(C)(C)c2ccccc21

absorption maximum (in CCO): 590 nm
absorption maximum (in O): 590 nm
SMILES: CC/[NH+]=c1\cc2oc3cc(NCCOC(=O)C(NC(=O)OC(C)(C)C)C(C)C)c4ccccc4c3nc-2cc1C (configuration not stated)

absorption maximum (in C1CCOC1): 343 nm
absorption maximum (in CCCCCC): 338 nm
absorption maximum (in CCO): 344 nm
absorption maximum (in CS(C)=O): 346 nm
SMILES: CCCCOc1ccc2cc(-c3ccc(C)cc3)c(=O)oc2c1
